According to patent publication US10947188B2, “Small molecule ferroptosis inducers” (THE TRUSTEES OF COLUMBIA UNIVERSITY IN THE CITY OF NEW YORK, priority 2016, dated 2021):

Assays:
[1] = tested on: BJeLR; assay: Modulatory profiling: Alamar Blue viability, lethal compound cotreated with death modulator (EC50, AUC); format: cell-based, human; parameters: AUC, modulator BJ.Gd3+ / AUC, modulator BJ.LNAME / AUC, modulator BJ.Lmin / AUC, modulator BJ.3MA / AUC, modulator BJ.ALLN / AUC, modulator BJ.Boc D / AUC, modulator BJ.CHX / AUC, modulator BJ.Co2+ / AUC, modulator BJ.Nec-1 / AUC, modulator BJ.Pepstatin / AUC, modulator BJ.TLCK / AUC, modulator BJ.atoc / AUC, modulator BJ.trolox / AUC, modulator BJ.zVAD: unit not given beside the values; details: BJeLR cells, modulatory profile value (AUC); for AUC, modulator BJ.3MA: lethal compound cotreated with modulator 3MA; for AUC, modulator BJ.ALLN: lethal compound cotreated with modulator ALLN; for AUC, modulator BJ.Boc D: lethal compound cotreated with modulator Boc D; for AUC, modulator BJ.CHX: lethal compound cotreated with modulator CHX; for AUC, modulator BJ.Co2+: lethal compound cotreated with modulator Co2+; for AUC, modulator BJ.DPQ: lethal compound cotreated with modulator DPQ; for AUC, modulator BJ.Gd3+: lethal compound cotreated with modulator Gd3+; for AUC, modulator BJ.LNAME: lethal compound cotreated with modulator LNAME; for AUC, modulator BJ.Lmin/NAD+: lethal compound cotreated with modulator Lmin/NAD+; for AUC, modulator BJ.Lmin: lethal compound cotreated with modulator Lmin; for AUC, modulator BJ.NAD+: lethal compound cotreated with modulator NAD+; for AUC, modulator BJ.NMMA: lethal compound cotreated with modulator NMMA; for AUC, modulator BJ.Nec-1: lethal compound cotreated with modulator Nec-1; for AUC, modulator BJ.Pepstatin: lethal compound cotreated with modulator Pepstatin; for AUC, modulator BJ.TLCK: lethal compound cotreated with modulator TLCK; as to AUC, modulator BJ.3MA: reference of the scale not given here; as to AUC, modulator BJ.ALLN: reference of the scale not given here; as to AUC, modulator BJ.Boc D: reference of the scale not given here; as to AUC, modulator BJ.CHX: reference of the scale not given here; as to AUC, modulator BJ.Co2+: reference of the scale not given here; as to AUC, modulator BJ.DPQ: reference of the scale not given here; as to AUC, modulator BJ.Gd3+: reference of the scale not given here; as to AUC, modulator BJ.LNAME: reference of the scale not given here; as to AUC, modulator BJ.NAD+: reference of the scale not given here; as to AUC, modulator BJ.NMMA: reference of the scale not given here; as to AUC, modulator BJ.Nec-1: reference of the scale not given here; as to AUC, modulator BJ.Pepstatin: reference of the scale not given here; as to AUC, modulator BJ.TLCK: reference of the scale not given here
[2] = tested on: HT-1080; assay: as above; format: cell-based; parameters: AUC, modulator HT.3MA / AUC, modulator HT.ALLN / AUC HT.ATA / AUC HT.ActD / AUC HT.BHA / AUC HT.BHT / AUC HT.BocD / AUC HT.CHX / AUC HT.Co2+ / AUC HT.DPQ / AUC HT.EGTA / AUC HT.Lmim / AUC HT.NAD+ / AUC HT.Nec-1 / AUC HT.SP600125 / AUC HT.TLCK / AUC HT.U0126: unit not given beside the values; details: for AUC HT.ATA: HT-1080, modulator ATA; for AUC HT.ActD: HT-1080, modulator ActD; for AUC HT.BHA: HT-1080, modulator BHA; for AUC HT.BHT: HT-1080, modulator BHT; for AUC HT.BocD: HT-1080, modulator BocD; for AUC HT.CHX: HT-1080, modulator CHX; for AUC HT.Co2+: HT-1080, modulator Co2+; for AUC HT.CspA: HT-1080, modulator CspA; for AUC HT.DPQ: HT-1080, modulator DPQ; for AUC HT.EGTA: HT-1080, modulator EGTA; for AUC HT.Gd3+: HT-1080, modulator Gd3+; for AUC HT.LNAME: HT-1080, modulator LNAME; for AUC HT.Lmim: HT-1080, modulator Lmim; for AUC HT.NAD+: HT-1080, modulator NAD+; for AUC HT.NMMA: HT-1080, modulator NMMA; for HT.atoc (AUC) / HT.bCarotene (AUC) / HT.deferox (AUC) / HT.digoxin (AUC) / HT.trolox (AUC) / HT.zVAD (AUC): HT-1080; for HT.atoc (AUC): modulator atoc; for HT.bCarotene (AUC): modulator bCarotene; for HT.deferox (AUC): modulator deferox; for HT.digoxin (AUC): modulator digoxin; for HT.trolox (AUC): modulator trolox; for HT.zVAD (AUC): modulator zVAD; as to AUC HT.BHA: reference of the scale not given here; as to AUC HT.EGTA: reference of the scale not given here

## CCOC(=O)[C@@H]1[C@@H](c2ccccc2)C(=O)CCN1NC(=O)c1ccccc1 [CIL89]
[1]
  AUC, modulator BJ.3MA: −0.01648
  AUC, modulator BJ.ALLN: −0.1204
  AUC, modulator BJ.Boc D: 0.03243
  AUC, modulator BJ.CHX: 0.1968
  AUC, modulator BJ.Co2+: 0.01721
  AUC, modulator BJ.DPQ: −0.02598
  AUC, modulator BJ.Gd3+: −0.07038
  AUC, modulator BJ.LNAME: 0.03646
  AUC, modulator BJ.Lmin/NAD+: 0.04069
  AUC, modulator BJ.Lmin: 0.03551
  AUC, modulator BJ.NAD+: −0.03932
  AUC, modulator BJ.NMMA: −0.02344
  AUC, modulator BJ.Nec-1: −0.02957
  AUC, modulator BJ.Pepstatin: −0.006292
  AUC, modulator BJ.TLCK: −0.06676
[2]
  AUC HT.ATA: 0.05896
  AUC HT.ActD: 0.03977
  AUC HT.BHA: −0.006147
  AUC HT.BHT: −0.1188
  AUC HT.BocD: −0.004667
  AUC HT.CHX: −0.008693
  AUC HT.Co2+: 0.008377
  AUC HT.CspA: −0.06906
  AUC HT.DPQ: −0.005287
  AUC HT.EGTA: 0.04226
  AUC HT.Gd3+: −0.04594
  AUC HT.LNAME: 0.003061
  AUC HT.Lmim: 0.02342
  AUC HT.NAD+: 0.02662
  AUC HT.NMMA: −0.009041
  HT.atoc (AUC): 0.0671
  HT.bCarotene (AUC): 0.01857
  HT.deferox (AUC): 0.04587
  HT.digoxin (AUC): 0.01146
  HT.trolox (AUC): −0.02147
  HT.zVAD (AUC): 0.03058

## COC(=O)c1[nH]c2ccc(Br)cc2c1NC(=O)CN1CCN(C2CCCCC2)CC1 [CIL71]
[1]
  AUC, modulator BJ.3MA: 0.01151
  AUC, modulator BJ.ALLN: −0.05589
  AUC, modulator BJ.Boc D: 0.0152
  AUC, modulator BJ.CHX: −0.06352
  AUC, modulator BJ.Co2+: 0.02676
  AUC, modulator BJ.DPQ: 0.03052
  AUC, modulator BJ.Gd3+: 0.01394
  AUC, modulator BJ.LNAME: 0.001204
  AUC, modulator BJ.Lmin/NAD+: 0.001502
  AUC, modulator BJ.Lmin: −0.02138
  AUC, modulator BJ.NAD+: −0.03656
  AUC, modulator BJ.NMMA: −0.000118
  AUC, modulator BJ.Nec-1: −0.02956
  AUC, modulator BJ.Pepstatin: −0.01112
  AUC, modulator BJ.TLCK: 0.01514
[2]
  AUC HT.ATA: 0.03481
  AUC HT.ActD: 0.0007018
  AUC HT.BHA: −0.05622
  AUC HT.BHT: −0.05839
  AUC HT.BocD: 0.01089
  AUC HT.CHX: 0.0761
  AUC HT.Co2+: 0.02342
  AUC HT.CspA: −0.03233
  AUC HT.DPQ: −0.003505
  AUC HT.EGTA: −0.02298
  AUC HT.Gd3+: −0.01552
  AUC HT.LNAME: 0.02366
  AUC HT.Lmim: −0.002609
  AUC HT.NAD+: 0.01546
  AUC HT.NMMA: −0.0007859
  HT.atoc (AUC): 0.03733
  HT.bCarotene (AUC): −0.01281
  HT.deferox (AUC): −0.003654
  HT.digoxin (AUC): −0.01046
  HT.trolox (AUC): −0.01311
  HT.zVAD (AUC): 0.01756

## CC1CC(C)(C)Nc2ccc(OC(=O)c3ccco3)cc21 (stereo not shown) [CIL4]
[1]
  AUC, modulator BJ.3MA: 0.08316
  AUC, modulator BJ.ALLN: −0.003083
  AUC, modulator BJ.Boc D: −0.01828
  AUC, modulator BJ.CHX: −0.009993
  AUC, modulator BJ.Co2+: −0.1747
  AUC, modulator BJ.DPQ: −0.003969
  AUC, modulator BJ.Gd3+: 0.05533
  AUC, modulator BJ.LNAME: −0.01288
  AUC, modulator BJ.Lmin/NAD+: 0.08674
  AUC, modulator BJ.Lmin: −0.002867
  AUC, modulator BJ.NAD+: 0.02731
  AUC, modulator BJ.NMMA: −0.01566
  AUC, modulator BJ.Nec-1: 0.1015
  AUC, modulator BJ.Pepstatin: 0.08231
  AUC, modulator BJ.TLCK: 0.06929
[1]; lethal compound cotreated with modulator atoc
  AUC, modulator BJ.atoc: 0.004307
[1]; lethal compound cotreated with modulator trolox
  AUC, modulator BJ.trolox: 0.008406
[1]; lethal compound cotreated with modulator zVAD
  AUC, modulator BJ.zVAD: 0.01242
[2]
  AUC HT.ATA: 0.02806
  AUC HT.ActD: −0.001463
  AUC HT.BHA: −0.00931
  AUC HT.BHT: −0.02212
  AUC HT.BocD: 0.1272
  AUC HT.CHX: 0.1096
  AUC HT.Co2+: −0.144
  AUC HT.CspA: −0.04696
  AUC HT.DPQ: 0.007359
  AUC HT.EGTA: 0.01533
  AUC HT.Gd3+: −0.009953
  AUC HT.LNAME: 0.01005
  AUC HT.Lmim: −0.01928
  AUC HT.NAD+: −0.01381
  AUC HT.NMMA: −0.007501
  HT.atoc (AUC): 0.02362
  HT.bCarotene (AUC): 0.001026
  HT.deferox (AUC): −3.785E−05
  HT.digoxin (AUC): −0.02389
  HT.trolox (AUC): −0.0201
  HT.zVAD (AUC): 0.0146
[2]; HT-1080, modulator Nec-1
  AUC HT.Nec-1: 0.002499
[2]; HT-1080, modulator Pepstatin
  AUC HT.Pepstatin: 0.00928
[2]; HT-1080, modulator SP600125
  AUC HT.SP600125: −0.006297
[2]; HT-1080, modulator TLCK
  AUC HT.TLCK: 0.0172
[2]; HT-1080, modulator U0126
  AUC HT.U0126: 0.0005624
[2]; HT-1080 cells, lethal compound cotreated with modulator 3MA, modulatory profile value (AUC)
  AUC, modulator HT.3MA: 0.02219
[2]; HT-1080 cells, lethal compound cotreated with modulator ALLN, modulatory profile value (AUC)
  AUC, modulator HT.ALLN: 0.02482

## COc1c2c(cc3c1C(CC(=O)/C=C/c1ccccc1)[N+](C)(C)CC3)OCO2 (stereo not shown) [CIL77]
[1]
  AUC, modulator BJ.3MA: −0.05728
  AUC, modulator BJ.ALLN: 0.01826
  AUC, modulator BJ.Boc D: 0.05622
  AUC, modulator BJ.CHX: 0.2548
  AUC, modulator BJ.Co2+: 0.1866
  AUC, modulator BJ.DPQ: −0.009273
  AUC, modulator BJ.Gd3+: −0.007344
  AUC, modulator BJ.LNAME: 0.03349
  AUC, modulator BJ.Lmin/NAD+: 0.04982
  AUC, modulator BJ.Lmin: −0.04848
  AUC, modulator BJ.NAD+: −0.05677
  AUC, modulator BJ.NMMA: −0.02771
  AUC, modulator BJ.Nec-1: −0.06543
  AUC, modulator BJ.Pepstatin: 0.07338
  AUC, modulator BJ.TLCK: −0.05565
[2]
  AUC HT.ATA: 0.05492
  AUC HT.ActD: 0.0959
  AUC HT.BHA: −0.008714
  AUC HT.BHT: −0.07998
  AUC HT.BocD: −0.02828
  AUC HT.CHX: 0.1436
  AUC HT.Co2+: 0.1261
  AUC HT.CspA: −0.05791
  AUC HT.DPQ: 0.003496
  AUC HT.EGTA: −0.00345
  AUC HT.Gd3+: −0.0368
  AUC HT.LNAME: 0.01693
  AUC HT.Lmim: 0.02573
  AUC HT.NAD+: 0.003357
  AUC HT.NMMA: −0.01509
  HT.atoc (AUC): 0.02076
  HT.bCarotene (AUC): −0.005078
  HT.deferox (AUC): 0.09145
  HT.digoxin (AUC): −0.01405
  HT.trolox (AUC): −0.01064
  HT.zVAD (AUC): 0.02554
